Legend:
Assay type in all cases: in vivo, human
[1] = 001 Study Part B: plasma PK of compound A; details: subjects with primary insomnia, single evening dose
Description: For subjects in Part B, blood samples for measurements of plasma concentrations of compound A were obtained by direct venipuncture on Day 1 predose and at 0.5, 9, 12, 24, 36, 60, 84, 108, 156, and 228 hours postdose.
Plasma concentrations of compound A were measured using a validated liquid chromatography-mass spectrometry/mass spectrometry (LC-MS/MS) assay.

healthy adult subjects = experiment: 002 Study: PK-PD exploratory analysis of next-day residual sleepiness; details: 9-10 hours postdose (1-2 hours after morning awakening), Day 2
Description: For the PK-PD exploratory analysis of next-day residual sleepiness, population PK model-derived compound A plasma concentrations at 8, 9, and 10 hours following administration on the evening of Day 1 were related to change from baseline on the KSS, PVT Lapses, and DSST at 15 minutes, 1 hour, and 2 hours after waketime on the morning of Day 2, respectively. […] Concentrations below 30 ng/mL (which occur at doses below 25 mg) after 9-10 hours postdose, which correspond to the 1-2 hours after morning awakening, were associated with minimal or no change from baseline on the KSS, PVT Lapses, or DSST.

subjects with insomnia [2] = experiment: 201 Study: Karolinska Sleepiness Scale (next-day residual sleepiness)
Description: All subjects returned to the clinic on Day-1 for Baseline Period procedures. They remained in the clinic until Day 3. Morning assessments on Day 1 provided the Baseline values for the KSS, the Digit Symbol Substitution Test (DSST), and the Reaction Time Index (RTI). Assessments at 6 hours after waketime provided the Baseline values for the Waking Function Battery (WFB), and the Profile of Mood States-Brief (POMS-B). Subjects were then randomized to receive 1 of 6 doses of compound A or placebo for the next 15 days. Study drugs were tablets containing compound A-matched placebo or compound A of 1 mg, 2.5 mg, 5 mg, or 10 mg and to be ingested 30 minutes before the median habitual bedtime calculated from their Sleep Diary responses during the Screening Period. An 8-hour PSG, starting at the same bedtime as used for the screening and Baseline PSG nights, was recorded on the first 2 treatment nights (Days 1 and 2). The Sleep Diary continued to be completed each day in the clinic, and assessments of insomnia severity (ISI), next-day residual effects (KSS, DSST, and RTI) were conducted while subjects were in the clinic. On specified study days, plasma concentrations of compound A were assessed while subjects were in the clinic in the morning after awakening and at trough just before dosing.
The KSS was used to measure next-day residual effects at prespecified timepoints. In this test, subjects rate their sleepiness using the KSS, a 9-point verbally anchored scale. Categories and scores range from“extremely alert” (score=1), “alert” (3), “neither alert nor sleepy” (5), “sleepy-but no difficulty remaining awake” (7), to “extremely sleepy-fighting sleep” (9). The key outcome parameter for the KSS was the score from 1 to 9.
Each dose was assessed for next-day residual sleepiness using the KSS. A mean difference of change from baseline in KSS at 1 hour after waketime on Day 2 and Day 3 of less than 4 units was incorporated into the utility function. A dose of compound A was considered to have an acceptable KSS at Day 15 and Day 16 if the mean difference of change from baseline in KSS at 1 hour after waketime on Day 15 and Day 16 at this dose relative to placebo was less than 4 units. Operationally, acceptable KSS for Day 15 and Day 16 was defined as the […] boundary of a 90% confidence interval (CI) being less than 4 units (of the mean difference of change from baseline in KSS at 1 hour after waketime at this dose relative to placebo).
In Table 6, “Baseline” was defined as the time-matched value on Day 1. “LS Means Diff” refers to the differences between LS Means of Placebo and each compound A dose, “95% CI” means to 95% CI of LS Means Diff. “p-value” was analyzed using analysis of covariance (ANCOVA) with baseline as a covanate.

subjects with insomnia [3] = experiment: 201 Study: population PK and PK/PD analysis
Description: During the Treatment period, blood samples for plasma concentrations of compound A were obtained within 30 minutes predose each night (except on Day 1) in the clinic and within 1 hour of morning waketime following each night spent in the clinic. Plasma concentrations of compound A were measured using a validated liquid chromatography-tandem mass spectrometry (LC-MS/MS) assay.
The PK/PD Analysis Set was used to evaluate relationships between compound A concentrations and selected PD parameters. The relationships between exposure to compound A and selected PD endpoints (eg. KSS, DSST, RTI) were explored graphically and could be followed by population PK/PD modeling. The relationship between plasma concentrations of compound A at predose (trough), and within 1 hour after morning waketime, and selected PD parameters, was analyzed using Nonmem version 7.2 or later.
Measures of the PD effects of compound A included KSS, RTI, DSST, the WFB (RTI, Rapid Visual Processing [RVP], and Spatial Span [SSP]), POMS, melatonin levels, and the DLMO. Due to high variability and non-normal distribution in change from baseline of LPS, it was not possible to reliably model the concentration-response relationship between compound A PK parameters and LPS. Nonetheless, higher plasma concentrations of compound A were associated with larger decreases in LPS, up to approximately 10 ng/mL. This finding was consistent with the efficacy results, where LPS was decreased at doses of 2.5 mg and higher. […] When modeled, WASO data were best described by log-linear relationships with the maximum observed concentration (Cmax). […] However, subjects whose compound A plasma concentrations were greater than 20 ng/mL at 1 hour after waking had slightly greater increases on the KSS and a higher incidence of AEs of somnolence. This concentration is predicted to be achieved by most subjects receiving doses greater than 10 mg.

[4] = 1 hour post waketime, 1 mg nightly
[5] = 1 hour post waketime, 2.5 mg nightly
[6] = 1 hour post waketime, 5 mg nightly
[7] = 1 hour post waketime, 10 mg nightly
[8] = 1 hour post waketime, 15 mg nightly
[9] = 1 hour post waketime, 25 mg nightly

## Cc1ncc(OC[C@@]2(c3cccc(F)c3)C[C@H]2C(=O)Nc2ccc(F)cn2)c(C)n1 [Compound A, (1R,2 S)-2-(((2,4-dimethylpyrimidin-5-yl)oxy)methyl)-2-(3-fluorophenyl)-N-(5-fluoropyridin-2-yl) cyclopropanecarboxamide]
[1]
  concentration-time profiles in Part B compared with Part A: approximately similar to their corresponding dose groups in Part A
Healthy adult subjects
  plasma concentration associated with minimal or no change from baseline on KSS, PVT Lapses, DSST: below 30 ng/mL
Subjects with insomnia [2]; 15 min post waketime timepoints
  KSS vs placebo, significance: No statistically significant differences
Subjects with insomnia [2]; [4]
  Change from Baseline in KSS, Mean of Days 2 & 3: LS Means Diff vs placebo: 0.02
  Change from Baseline in KSS, Mean of Days 2 & 3: Mean: −0.2
  Change from Baseline in KSS, Mean of Days 15 & 16: LS Means Diff vs placebo: 0.51
  Change from Baseline in KSS, Mean of Days 15 & 16: Mean: 0.3
Subjects with insomnia [2]; [5]
  Change from Baseline in KSS, Mean of Days 2 & 3: LS Means Diff vs placebo: −0.06
  Change from Baseline in KSS, Mean of Days 2 & 3: Mean: −0.3
  Change from Baseline in KSS, Mean of Days 15 & 16: LS Means Diff vs placebo: 0.13
  Change from Baseline in KSS, Mean of Days 15 & 16: Mean: −0.1
Subjects with insomnia [2]; [6]
  Change from Baseline in KSS, Mean of Days 2 & 3: LS Means Diff vs placebo: 0.20
  Change from Baseline in KSS, Mean of Days 2 & 3: Mean: −0.1
  Change from Baseline in KSS, Mean of Days 15 & 16: LS Means Diff vs placebo: 0.43
  Change from Baseline in KSS, Mean of Days 15 & 16: Mean: 0.1
Subjects with insomnia [2]; [7]
  Change from Baseline in KSS, Mean of Days 2 & 3: LS Means Diff vs placebo: 0.16
  Change from Baseline in KSS, Mean of Days 2 & 3: Mean: 0.0
  Change from Baseline in KSS, Mean of Days 15 & 16: LS Means Diff vs placebo: 0.01
  Change from Baseline in KSS, Mean of Days 15 & 16: Mean: −0.1
Subjects with insomnia [2]; [8]
  Change from Baseline in KSS, Mean of Days 2 & 3: LS Means Diff vs placebo: 0.32
  Change from Baseline in KSS, Mean of Days 2 & 3: Mean: 0.1
  Change from Baseline in KSS, Mean of Days 15 & 16: LS Means Diff vs placebo: 0.38
  Change from Baseline in KSS, Mean of Days 15 & 16: Mean: 0.1
Subjects with insomnia [2]; [9]
  Change from Baseline in KSS, Mean of Days 2 & 3: LS Means Diff vs placebo: 0.47
  Change from Baseline in KSS, Mean of Days 2 & 3: Mean: 0.4
  Change from Baseline in KSS, Mean of Days 15 & 16: LS Means Diff vs placebo: 0.68
  Change from Baseline in KSS, Mean of Days 15 & 16: Mean: 0.6
Subjects with insomnia [2]; 1 hour post waketime, Mean of Days 2/3, 1 mg to 15 mg
  KSS LS mean differences vs placebo, significance: not statistically significant
Subjects with insomnia [2]; 2 hour post waketime, mean of Days 2/3, 15 mg and 25 mg
  KSS vs placebo, significance: statistical significance
Subjects with insomnia [2]; 2 hour post waketime, mean of Days 15/16, 25 mg
  KSS vs placebo, significance: statistically significant
Subjects with insomnia [3]; PK/PD analyses
  next-day residual sleepiness (KSS, DSST, RTI) vs time-matched plasma concentrations: did not show any apparent relationship
Subjects with insomnia [3]; PK/PD model
  exposure-response relationship for WASO: log-linear relationship with Cmax
Subjects with insomnia [3]; asymptote above this concentration
  plasma concentration up to which higher concentrations were associated with larger decreases in LPS: approximately 10 ng/mL
Subjects with insomnia [3]; at 1 hour after waking
  plasma concentration associated with slightly greater increases on the KSS and higher incidence of AEs of somnolence: greater than 20 ng/mL
Subjects with insomnia [3]; population PK
  Apparent clearance: independent of dose and time
  PK model: 2-compartment model with elimination from the central compartment
Subjects with insomnia [3]; predicted
  doses predicted to achieve plasma concentration greater than 20 ng/mL at 1 hour after waking in most subjects: greater than 10 mg

From patent publication US11026944B2, “Compositions and methods for treating insomnia” (Eisai R&D Management Co., Ltd., priority 2014, dated 2021)
